Test results from ChEMBL document CHEMBL3352030, “Evaluation of the cyclopentane-1,2-dione as a potential bio-isostere of the carboxylic acid functional group” (Bioorg Med Chem Lett, 2014).

Experiments:
[1] = target: T1, Thromboxane A2 receptor (Homo sapiens, UniProt P21731); test: Inhibition of human TP receptor expressed in QBI-HEK 293A cells assessed as IP3 metabolite level after 1 hr by HTRF assay; format: functional, cell-based
T1 sequence (P21731 whole entry): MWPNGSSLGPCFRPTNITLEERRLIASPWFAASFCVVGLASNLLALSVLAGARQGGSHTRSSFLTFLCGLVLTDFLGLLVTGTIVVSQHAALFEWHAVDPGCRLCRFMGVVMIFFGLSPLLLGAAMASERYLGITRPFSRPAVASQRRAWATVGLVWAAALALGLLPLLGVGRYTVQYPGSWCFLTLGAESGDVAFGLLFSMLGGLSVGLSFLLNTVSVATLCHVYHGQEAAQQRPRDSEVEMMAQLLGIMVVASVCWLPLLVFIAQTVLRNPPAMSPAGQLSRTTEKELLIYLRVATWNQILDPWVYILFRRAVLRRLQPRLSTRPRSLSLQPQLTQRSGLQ

[2] = Dissociation constant, pKa of the compound by potentiometric titration
[3] = test system: Plasma; test: Stability in CD-1 mouse plasma at 1 uM after 1 hr by LC/MS/MS analysis; format: ADME, cell-free

Row | IC50 [1] [µM] | pKa [2] | Stability [3] | SMILES
1 | 1.14 | – | – | O=C1CC(c2cccc(CCNS(=O)(=O)c3ccc(Cl)cc3)c2)C=C1O (stereo not given)
2 | – | 8.6 | – | O=C1CCC(Cc2ccc(Br)cc2)=C1O
3 | 0.054 | – | Stable | O=C1CCC(Cc2cccc(CCNS(=O)(=O)c3ccc(Cl)cc3)c2)=C1O
4 | 0.0026 | – | – | O=C(O)CCc1cccc2c1CCC(NS(=O)(=O)c1ccc(Cl)cc1)C2 (stereo not given)
